Measurements: ChEMBL document CHEMBL5029165, “Derivatives of montanine-type alkaloids and their implication for the treatment of Alzheimer's disease: Synthesis, biological activity and in silico study” (Bioorg Med Chem Lett, 2021)

What was measured:
Acetylcholinesterase [1] = molecular target: T1, Acetylcholinesterase (Homo sapiens, UniProt P22303); assay: Inhibition of human AChE at 100 uM using acetylthiocholine as substrate by Ellman's method
Acetylcholinesterase [2] = molecular target: T1, Acetylcholinesterase; assay: Inhibition of human AChE using acetylthiocholine as substrate by Ellman's method
Cholinesterase [3] = molecular target: T2, Cholinesterase (Homo sapiens, UniProt P06276); assay: Inhibition of human BuChE at 100 uM using butyrylthiocholine chloride as substrate by Ellman's method
Cholinesterase [4] = molecular target: T2, Cholinesterase; assay: Inhibition of human BuChE using butyrylthiocholine chloride as substrate by Ellman's method
[5] = Selectivity index, ratio of IC50 for human BuChe to IC50 for human AChE
[6] = Selectivity index, ratio of IC50 for human AChE to IC50 for human BuChe

T1 sequence (P22303 whole entry): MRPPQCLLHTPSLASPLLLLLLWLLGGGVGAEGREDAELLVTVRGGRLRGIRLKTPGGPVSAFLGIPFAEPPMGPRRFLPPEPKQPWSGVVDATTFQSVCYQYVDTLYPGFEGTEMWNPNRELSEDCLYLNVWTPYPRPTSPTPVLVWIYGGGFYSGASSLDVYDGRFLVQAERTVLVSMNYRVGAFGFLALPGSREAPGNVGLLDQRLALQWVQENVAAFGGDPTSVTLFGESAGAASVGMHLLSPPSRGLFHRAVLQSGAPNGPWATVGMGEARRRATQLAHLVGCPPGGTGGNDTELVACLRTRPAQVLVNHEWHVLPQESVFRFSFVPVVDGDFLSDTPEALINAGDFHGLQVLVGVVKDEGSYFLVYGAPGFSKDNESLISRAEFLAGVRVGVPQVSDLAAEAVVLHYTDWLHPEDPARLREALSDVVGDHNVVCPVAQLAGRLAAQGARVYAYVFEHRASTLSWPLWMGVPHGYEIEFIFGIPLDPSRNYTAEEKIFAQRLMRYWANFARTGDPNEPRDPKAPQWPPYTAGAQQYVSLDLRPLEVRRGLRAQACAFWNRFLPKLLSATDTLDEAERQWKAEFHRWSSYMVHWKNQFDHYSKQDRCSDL
T2 sequence (P06276 whole entry): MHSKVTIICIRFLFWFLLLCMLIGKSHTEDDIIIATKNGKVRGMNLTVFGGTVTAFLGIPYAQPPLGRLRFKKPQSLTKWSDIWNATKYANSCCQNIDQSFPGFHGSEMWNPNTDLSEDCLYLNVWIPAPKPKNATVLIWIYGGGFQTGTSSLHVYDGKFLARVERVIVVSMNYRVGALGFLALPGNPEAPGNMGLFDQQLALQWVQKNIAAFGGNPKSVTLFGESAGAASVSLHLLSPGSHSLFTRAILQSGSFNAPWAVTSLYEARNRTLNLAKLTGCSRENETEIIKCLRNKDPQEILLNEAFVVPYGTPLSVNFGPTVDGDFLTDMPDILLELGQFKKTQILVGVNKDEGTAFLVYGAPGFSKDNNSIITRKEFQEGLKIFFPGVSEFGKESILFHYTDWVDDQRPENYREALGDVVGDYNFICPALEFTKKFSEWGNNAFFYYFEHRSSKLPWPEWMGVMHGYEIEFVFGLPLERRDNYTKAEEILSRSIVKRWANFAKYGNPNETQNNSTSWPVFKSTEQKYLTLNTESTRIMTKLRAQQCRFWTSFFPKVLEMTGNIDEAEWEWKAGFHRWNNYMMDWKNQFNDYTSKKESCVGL

Row | Structure (SMILES) | inhibition (Acetylcholinesterase [1]) | IC50 (Acetylcholinesterase [2]) | inhibition (Cholinesterase [3]) | IC50 (Cholinesterase [4]) | Selectivity Index [5] | Selectivity Index [6]
1 | COc1ccccc1C(=O)O[C@H]1C=C2[C@H]3CN(Cc4cc5c(cc43)OCO5)[C@H]2C[C@@H]1OC | 15.6% | > 100 µM | 30.1% | > 100 µM | – | –
2 | Cc1ccccc1C(=O)O[C@@H]1C=C[C@]23CCN(Cc4cc5c(cc42)OCO5)[C@H]3C1 | – | > 100 µM | – | 8 µM | – | –
3 | CO[C@H]1C[C@H]2C(=C[C@@H]1OC(=O)N1CCCCC1)[C@H]1CN2Cc2cc3c(cc21)OCO3 | 8.8% | > 100 µM | 97% | 1.73 µM | – | –
4 | CO[C@H]1C[C@H]2C(=C[C@@H]1OC(=O)c1ccc([N+](=O)[O-])cc1)[C@H]1CN2Cc2cc3c(cc21)OCO3 | 48.1% | > 100 µM | 26.2% | > 100 µM | – | –
5 | CO[C@H]1C=C2[C@H]3C[N@@](Cc4cc5c(cc43)OCO5)[C@H]2C[C@@H]1O [MONTANINE] | – | > 100 µM | – | > 100 µM | – | –
6 | COc1c2c(cc3c1OCO3)[C@]13C=C[C@H](OC)C[C@H]1N(C2)C[C@H]3OC(=O)c1cccc2ccccc12 | – | > 100 µM | – | 0.1 µM | – | –
7 | CO[C@H]1C[C@H]2C(=C[C@@H]1OC(=O)c1ccco1)[C@H]1CN2Cc2cc3c(cc21)OCO3 | 15.1% | > 100 µM | 26.9% | > 100 µM | – | –
8 | CO[C@H]1C=C2[C@H]3CN(Cc4cc5c(cc43)OCO5)[C@H]2C[C@@H]1OC(=O)c1ccc([N+](=O)[O-])cc1Cl | 2.3% | > 100 µM | 69.8% | 17 µM | < 0.17 | > 5.9
9 | CO[C@H]1C[C@H]2C(=C[C@@H]1O)[C@H]1CN2Cc2cc3c(cc21)OCO3 | 9.2% | > 100 µM | 9.2% | > 100 µM | – | –
10 | CO[C@H]1C[C@H]2C(=C[C@@H]1OC(=O)c1cc([N+](=O)[O-])ccc1Cl)[C@H]1CN2Cc2cc3c(cc21)OCO3 | 78.7% | 3.18 µM | 30% | > 100 µM | > 31.4 | < 0.03
11 | CO[C@H]1C[C@H]2C(=C[C@@H]1OC(=O)c1ccccc1)[C@H]1CN2Cc2cc3c(cc21)OCO3 | 8.5% | > 100 µM | 20.1% | > 100 µM | – | –
12 | CO[C@H]1C[C@H]2C(=C[C@@H]1OC(=O)c1cccc(C)c1)[C@H]1CN2Cc2cc3c(cc21)OCO3 | 18.2% | > 100 µM | 12.9% | > 100 µM | – | –
13 | COc1ccc(C(=O)O[C@H]2C=C3[C@H]4CN(Cc5cc6c(cc54)OCO6)[C@H]3C[C@@H]2OC)cc1 | 12.5% | > 100 µM | 15.5% | > 100 µM | – | –
14 | CO[C@H]1C[C@H]2C(=C[C@@H]1OC(=O)c1cc([N+](=O)[O-])cc([N+](=O)[O-])c1)[C@H]1CN2Cc2cc3c(cc21)OCO3 | 70.8% | 13.1 µM | 19.2% | > 100 µM | > 7.66 | < 0.13
15 | CO[C@H]1C[C@H]2C(=C[C@@H]1OCCN1CCCCC1)[C@H]1CN2Cc2cc3c(cc21)OCO3 | 6.5% | > 100 µM | 45.2% | > 100 µM | – | –
16 | CO[C@H]1C=C2[C@H]3CN(Cc4cc5c(cc43)OCO5)[C@H]2C[C@@H]1OC(=O)N1CCCCC1 | 10.9% | > 100 µM | 88.2% | 6.54 µM | < 0.07 | > 15.3
17 | O=C(O[C@H]1CN2Cc3cc4c(cc3[C@]13C=C[C@@H](O)C[C@H]23)OCO4)c1ccccc1Cl | – | 13 µM | – | 5.6 µM | – | –
18 | COc1ccc(C(=O)O[C@H]2C=C3[C@H]4CN(Cc5cc6c(cc54)OCO6)[C@H]3C[C@@H]2OC)cc1OC | 17.2% | > 100 µM | 18.1% | > 100 µM | – | –
19 | CO[C@H]1C[C@H]2C(=C[C@@H]1OC(=O)C1CCCCC1)[C@H]1CN2Cc2cc3c(cc21)OCO3 | 1.2% | > 100 µM | 20.8% | > 100 µM | < 0.02 | > 57.8

Row | Structure (SMILES) | inhibition (Acetylcholinesterase [1]) | IC50 (Acetylcholinesterase [2]) | inhibition (Cholinesterase [3]) | IC50 (Cholinesterase [4]) | Selectivity Index [5] | Selectivity Index [6]
20 | CO[C@H]1C[C@H]2C(=C[C@@H]1OC(=O)c1cc(Br)cc([N+](=O)[O-])c1)[C@H]1CN2Cc2cc3c(cc21)OCO3 | 28% | > 100 µM | 31.7% | > 100 µM | – | –
21 | CO[C@H]1C=C2[C@H]3CN(Cc4cc5c(cc43)OCO5)[C@H]2C[C@@H]1OC(=O)c1ccc(C)c([N+](=O)[O-])c1 | 30.3% | > 100 µM | 20.4% | > 100 µM | – | –
22 | COc1cccc(C(=O)O[C@H]2C=C3[C@H]4CN(Cc5cc6c(cc54)OCO6)[C@H]3C[C@@H]2OC)c1 | 19.3% | > 100 µM | 20.3% | > 100 µM | – | –
23 | CO[C@H]1C[C@H]2C(=C[C@@H]1OC(=O)c1ccc([N+](=O)[O-])cc1Cl)[C@H]1CN2Cc2cc3c(cc21)OCO3 | 48.6% | > 100 µM | 27.1% | > 100 µM | – | –
24 | CO[C@H]1C[C@H]2C(=C[C@@H]1OC(=O)c1cccc([N+](=O)[O-])c1)[C@H]1CN2Cc2cc3c(cc21)OCO3 | 55.3% | > 100 µM | 18.1% | > 100 µM | – | –
25 | CO[C@H]1C=C2[C@H]3CN(Cc4cc5c(cc43)OCO5)[C@H]2C[C@@H]1OC(=O)c1ccc(Cl)c([N+](=O)[O-])c1 | 4.8% | > 100 µM | 13.8% | > 100 µM | – | –
26 | COc1ccccc1C(=O)O[C@H]1CN2Cc3cc4c(cc3[C@]13C=C[C@@H](O)C[C@H]23)OCO4 | – | 90 µM | – | 3.3 µM | – | –
27 | CO[C@H]1C[C@H]2C(=C[C@@H]1OC(=O)c1ccccc1[N+](=O)[O-])[C@H]1CN2Cc2cc3c(cc21)OCO3 | 34.1% | > 100 µM | 45.4% | > 100 µM | – | –
28 | CO[C@H]1C=C2[C@H]3CN(Cc4cc5c(cc43)OCO5)[C@H]2C[C@@H]1O | 13.7% | – | 8.4% | – | – | –
29 | CO[C@H]1C=C2[C@H]3CN(Cc4cc5c(cc43)OCO5)[C@H]2C[C@@H]1OC(=O)c1cc([N+](=O)[O-])ccc1Cl | 1.8% | > 100 µM | 40.1% | > 100 µM | – | –
30 | CO[C@H]1C[C@H]2C(=C[C@@H]1OC(=O)c1ccc(C)cc1)[C@H]1CN2Cc2cc3c(cc21)OCO3 | 12.4% | > 100 µM | 12.9% | > 100 µM | – | –
31 | CO[C@H]1C[C@H]2C(=C[C@@H]1OC(=O)c1ccc(C)c([N+](=O)[O-])c1)[C@H]1CN2Cc2cc3c(cc21)OCO3 | 81.5% | 4.32 µM | 6.8% | > 100 µM | > 23.1 | < 0.04
32 | CO[C@H]1C[C@H]2C(=C[C@@H]1OC(=O)c1ccccc1C)[C@H]1CN2Cc2cc3c(cc21)OCO3 | 29.7% | > 100 µM | 30.2% | > 100 µM | – | –
33 | CO[C@H]1C[C@H]2C(=C[C@@H]1OC(=O)c1cccs1)[C@H]1CN2Cc2cc3c(cc21)OCO3 | 29.4% | > 100 µM | 49.7% | > 100 µM | – | –
34 | O=C(O[C@H]1CN2Cc3cc4c(cc3[C@]13C=C[C@@H](O)C[C@H]23)OCO4)c1cccc([N+](=O)[O-])c1 | – | 4 µM | – | > 100 µM | – | –
35 | CO[C@H]1C[C@H]2C(=C[C@@H]1OC(=O)c1ccc(Cl)c([N+](=O)[O-])c1)[C@H]1CN2Cc2cc3c(cc21)OCO3 | 83.7% | 1.61 µM | 26.5% | > 100 µM | > 62.1 | < 0.02
36 | O=C(O[C@@H]1C=C[C@]23CCN(Cc4cc5c(cc42)OCO5)[C@H]3C1)c1ccccc1[N+](=O)[O-] | – | 60 µM | – | 1.4 µM | – | –
37 | CO[C@H]1C[C@H]2C(=C[C@@H]1OC(=O)c1ccoc1)[C@H]1CN2Cc2cc3c(cc21)OCO3 | 6.8% | > 100 µM | 30.2% | > 100 µM | – | –
